Tests used:
Enterovirus A71 = experiment: Antiviral activity against Enterovirus 71/Shenzhen/120F1/09 infected in human RD cells assessed as reduction in virus induced cell death after 72 hrs by CCK-8 assay; type: functional, organism-based; settings: Enterovirus A, Shenzhen/120F1/09, RD
[1] = Metabolic stability in mouse plasma assessed as compound remaining after 2 hrs; type: ADME, cell-free; settings: read-out: Stability
rhinovirus B14 = experiment: Antiviral activity against HRV-14 infected in H1HeLa cells after 2 days by XTT assay; type: functional, organism-based; settings: Rhinovirus B, H1-HeLa, 48 h
[2] = Half life in mouse at 2 mg/kg, iv; type: ADME, organism-based; settings: in vivo
[3] = Volume of distribution in mouse at 2 mg/kg, iv; type: ADME, organism-based; settings: in vivo
[4] = AUC in mouse at 2 mg/kg, iv; type: ADME, organism-based; settings: in vivo
[5] = Clearance in mouse at 2 mg/kg, iv; type: ADME, organism-based; settings: in vivo
[6] = Cmax in mouse at 5 mg/kg, ip; type: ADME, organism-based; parameters: dose 5 mg/kg, route intraperitoneal; settings: in vivo
[7] = AUC in mouse at 5 mg/kg, ip; type: ADME, organism-based; settings: in vivo
[8] = Bioavailability in mouse at 5 mg/kg, ip; type: ADME, organism-based; settings: in vivo
[9] = Half life in mouse at 5 mg/kg, ip; type: ADME, organism-based; settings: in vivo

Row | Compound | remaining at 2 h [1] | EC50 (Enterovirus A71) | other results
1 | CCOC(=O)/C=C/[C@H](C[C@@H]1CCNC1=O)NC(=O)[C@H](Cc1ccc(F)c(F)c1)n1ccc2ccn(CC3CC3)c2c1=O | – | > 100000 nM | –
2 | CCOC(=O)/C=C/[C@H](C[C@@H]1CCNC1=O)NC(=O)[C@@H](CC(=O)[C@@H](NC(=O)c1cc(C)on1)C(C)C)Cc1ccc(F)cc1 [RUPINTRIVIR] | 2.7% | 9 nM | –
3 | Cc1cc(C(=O)N[C@H](C(=O)C[C@@H](Cc2ccc(F)cc2)C(=O)N[C@H](/C=C/S(=O)(=O)c2nccs2)C[C@@H]2CCNC2=O)C(C)C)no1 | 24% | 520 nM | –
4 | CCOC(=O)/C=C/[C@H](C[C@@H]1CCNC1=O)NC(=O)[C@H](Cc1ccccc1)n1ccc2cc[nH]c2c1=O | – | – | EC50 (rhinovirus B14): 1270 nM
5 | Cc1cc(C(=O)N[C@H](C(=O)C[C@@H](Cc2ccc(F)cc2)C(=O)N[C@H](/C=C/C(=O)OCc2ccccc2)C[C@@H]2CCNC2=O)C(C)C)no1 | 2.4% | 140 nM | –
6 | CCOC(=O)/C=C/[C@H](C[C@@H]1CCNC1=O)NC(=O)[C@H](Cc1ccc(F)c(F)c1)n1ccc2ccn(Cc3ccccc3)c2c1=O | – | > 100000 nM | –
7 | Cc1cc(C(=O)N[C@H](C(=O)C[C@@H](Cc2ccc(F)cc2)C(=O)N[C@H](/C=C/C(=O)N2CCCC2)C[C@@H]2CCNC2=O)C(C)C)no1 | 82% | 12000 nM | –
8 | Cc1cc(C(=O)N[C@H](C(=O)C[C@@H](Cc2ccc(F)cc2)C(=O)N[C@H](/C=C/C(=O)N2CCOCC2)C[C@@H]2CCNC2=O)C(C)C)no1 | 88% | 8920 nM | –
9 | Cc1cc(C(=O)N[C@H](C(=O)C[C@@H](Cc2ccc(F)cc2)C(=O)N[C@H](/C=C/C(=O)N2CCC(F)(F)CC2)C[C@@H]2CCNC2=O)C(C)C)no1 | 63% | 1240 nM | –
10 | Cc1cc(C(=O)N[C@H](C(=O)C[C@@H](Cc2ccc(F)cc2)C(=O)N[C@H](/C=C/C(=O)OC2CCC2)C[C@@H]2CCNC2=O)C(C)C)no1 | 5.3% | 260 nM | –
11 | Cc1cc(C(=O)N[C@H](C(=O)C[C@@H](Cc2ccc(F)cc2)C(=O)N[C@H](/C=C/C(=O)N2CCC(F)(F)C2)C[C@@H]2CCNC2=O)C(C)C)no1 | 54% | 760 nM | –
12 | Cc1cc(C(=O)N[C@H](C(=O)C[C@@H](Cc2ccc(F)cc2)C(=O)N[C@H](/C=C2\CC(C)OC2=O)C[C@@H]2CCNC2=O)C(C)C)no1 (stereo not given in full) | 81% | 220 nM | –
13 | Cc1cc(C(=O)N[C@H](C(=O)C[C@@H](Cc2ccc(F)cc2)C(=O)N[C@H](/C=C/C(=O)N2CCc3cc(Cl)ccc32)C[C@@H]2CCNC2=O)C(C)C)no1 | 26% | 180 nM | –
14 | Cc1cc(C(=O)N[C@H](C(=O)C[C@@H](Cc2ccc(F)cc2)C(=O)N[C@H](/C=C/S(C)(=O)=O)C[C@@H]2CCNC2=O)C(C)C)no1 | – | 1510 nM | –
15 | CCOC(=O)/C=C/[C@H](C[C@@H]1CCNC1=O)NC(=O)[C@H](Cc1ccc(F)c(F)c1)n1ccc2ccn(C)c2c1=O | – | > 100000 nM | –

The next lines start with results.

Row | remaining at 2 h [1] | Compound | EC50 (Enterovirus A71) | other results
16 | 1.4% | CCOC(=O)/C=C/[C@H](C[C@@H]1CCNC1=O)NC(=O)[C@H](Cc1ccc(F)cc1)n1cccc(NC(=O)c2cc(C)on2)c1=O | – | EC50 (rhinovirus B14): 2 nM
17 | 92% | O=C1OCC/C1=C\[C@H](C[C@@H]1CCNC1=O)NC(=O)[C@H](Cc1ccc(F)c(F)c1)n1ccc2cc(-c3ccccc3F)[nH]c2c1=O | 340 nM | half-life [2]: 75.6 min; Vd [3]: 8.8 L/kg; AUC [4]: 0.25 µM·h; clearance [5]: 140 mL/min/kg
18 | 1% | CCOC(=O)/C=C/[C@H](C[C@@H]1CCNC1=O)NC(=O)[C@H](Cc1ccc(F)c(F)c1)n1ccc2cc[nH]c2c1=O | 3560 nM | –
19 | 80% | O=C1OCC/C1=C\[C@H](C[C@@H]1CCNC1=O)NC(=O)[C@H](Cc1ccc(F)c(F)c1)n1ccc2cc[nH]c2c1=O | 13100 nM | –
20 | 0.9% | CCOC(=O)/C=C/[C@H](C[C@@H]1CCNC1=O)NC(=O)[C@H](Cc1ccc(F)c(F)c1)n1ccc2ccn(-c3ccccn3)c2c1=O | > 100000 nM | –
21 | 0% | CCOC(=O)/C=C/[C@H](C[C@@H]1CCNC1=O)NC(=O)[C@H](Cc1ccc(F)c(F)c1)n1ccc2cc(-c3ccccc3F)[nH]c2c1=O | 1020 nM | –
22 | 77% | O=C1OCC/C1=C\[C@H](C[C@@H]1CCNC1=O)NC(=O)[C@H](Cc1ccc(F)c(F)c1)n1ccc2cc(Br)[nH]c2c1=O | 2010 nM | –
23 | 88% | Cc1cc(C(=O)N[C@H](C(=O)C[C@@H](Cc2ccc(F)cc2)C(=O)N[C@H](/C=C2\CCOC2=O)C[C@@H]2CCNC2=O)C(C)C)no1 | 28 nM | Cmax [6]: 2570 nM; half-life [2]: 12 min; AUC [7]: 1.28 µM·h; Vd [3]: 1.6 L/kg; AUC [4]: 0.444 µM·h; bioavailability [8]: 115%; clearance [5]: 130 mL/min/kg; half-life [9]: 10.8 min
24 | 0.3% | CCOC(=O)/C=C/[C@H](C[C@@H]1CCNC1=O)NC(=O)[C@H](Cc1ccc(F)c(F)c1)n1ccc2cc(Br)[nH]c2c1=O | 500 nM | –
